Data taken from publication PMC8778187, “A New Oxygen Containing Pyclen-Type Ligand as a Manganese(II) Binder for MRI and ^52Mn PET Applications: Equilibrium, Kinetic, Relaxometric, Structural and Radiochemical Studies” (Molecules, 2022).
“And” between values parts separate entries of the source, which are not always exact repeats. Equal values may be shown once.

Assays:
[1] = 1H relaxometry: r1p and r2p relaxivity of Mn(II) complexes; format: physicochemical; details: for r1p / r2p: Mn(II) complex, pH = 7.4
Protocol: The relaxivity of Mn(II) complexes is one of the most important parameters that directly correlates with its MRI efficacy. Relaxivity is defined as the longitudinal (r1p) and transverse (r2p) water proton relaxation rate enhancement, provided by 1.0 mM concentration of the paramagnetic species. The relaxivity (r1p and r2p) of the Mn(II) complexes were determined using relaxometers operating at 0.49 T and 1.41 T field strength, in a HEPES buffer (I = 0.15 M NaCl) at different temperatures from the slopes of plots 1/T1,2 vs. (Mn(II)) for 4 concentrations of Mn(II) (data shown in Supporting Information Figures S24 and S25), and they are compared in Table 4.
The ^1H longitudinal (T1) and transverse (T2) relaxation times were measured by using Bruker Minispec MQ-20 and MQ-60 NMR analyzers (Bruker corporation, Billerica, MA, USA). The temperature of the sample holder was set at 25.0 or 37 (±0.2) °C, and controlled with a circulating water bath thermostat. The T1 values of the samples were determined by means of the inversion recovery method (180°–τ–90°), averaging 4–6 data points obtained at 12 different τ delay times, while T2 data were collected by using the Carl–Purcell–Meiboom–Gill (CPMG) spin-echo pulse sequence. Relaxivities were determined by published procedures (from the slopes of the plots of 1/T1,2 vs. (Mn(II)) for 4 concentrations of Mn(II)), in samples of 0.3–0.4 mL volume (data shown in Figures S24 and S25, Supplementary Information). The pH were set by either using a 0.05 M 4-(2-hydroxyethyl)-1-piperazine-ethanesulfonic acid (HEPES) buffer (pH = 7.4) or monitored (pH profiles) using a Metrohm 827 pH lab pH meter and a Metrohm 6.0234.100 combined electrode, in the pH range of 1.75–11.8.

[2] = Metal exchange reactions with Cu(II) followed by UV-Vis as a function of pH; format: physicochemical
Protocol: Metal exchange reactions occurring with Cu(II) studied as a function of pH: a more detailed dissociation kinetic study was performed by using the Cu(II) ion. Metal exchange reactions occurring with Cu(II) were followed by UV-Vis as a function of the pH (in the pH range of 3.44–4.97) and metal ion concentration (20- and 40-fold excess of Cu(II) was applied), in order to evaluate the rates of spontaneous (k0 rate constant) and/or proton assisted (k1 rate constant) and/or metal ion provoked dissociation (kM).
As it can be seen in Figure 4, the rate constants (kobs) are proportional to the H^+ ion concentration, while they slightly decrease with the increasing Cu(II) concentration. Therefore, one can assume that [Mn(3,9-OPC2A)] dissociates by following spontaneous (the positive value of the intercept with the y axis) and proton assisted pathways, while Cu(II) is involved in the formation of a dinuclear intermediate with a relatively low stability [Mn(3,9-OPC2A)Cu]^2+, which is a “dead-end” complex (i.e., its formation reduces the concentration of the reactive protonated species, thereby slowing down the reaction). The dissociation pathways followed by [Mn(3,9-OPC2A)] can be accounted for by Equation (1), where [Mn(L)]t is the total concentration of the Mn(II) complex, and the k0, kH, and kM are the rate constants characterizing the spontaneous, the proton and metal ion assisted pathways, respectively. (1) −d[Mn(L)]/dt=kobs[Mn(L)]t=k0[Mn(L)]+kH[Mn(HL)]+kHHMnH2L+kM[Mn(L)Cu]
Using the expressions for the stability and protonation constants of the complexes, and that of the dinuclear intermediate [Mn(L)Cu], one can derive Equation (1) (in this expression k1 = kH × KMnL×H; k2 = kH^H × KMnL×H; × KMnLH×H; k3 = kM × KMnL×Cu; where KMnL×H; and KMnLH×H are the protonation constants of [Mn(3,9-OPC2A)] and KMnL×Cu is the stability constant of the dinuclear [Mn(3,9-OPC2A)Cu]^2+ intermediate, which is used for the fitting of the kobs rate data—the proton assisted dissociation pathways involving a diprotonated intermediate, characterized k2, play a negligible role in the dissociation of the [Mn(3,9-OPC2A)] complex under the experimental conditions used for kinetic studies. (2) kobs=k0+k1H^+/1+KHH^++KMCu^2+
Metal exchange reactions occurring between the complex and Cu(II) (in the presence of a 20- and 40-fold excess, to ensure pseudo-first-order conditions) was investigated at 25 °C and 0.15 M NaCl ionic strength, by using a JASCO V-760 UV-VIS spectrophotometer at 290 nm. […] The values of the pseudo-first-order rate constants (kobs) were determined using the following equation: At = Av + (A0 − Av)e^kobs×t, where At is the absorbance at time t, A0 is the absorbance of the reactants, and Av is the absorbance of the products.

For `O=C(O)CN1CCOCCN(CC(=O)O)Cc2cccc(n2)C1` [H23,9-OPC2A, 6-Oxa-3,9,15-triazabicyclo(9.3.1)pentadeca-1(15),11,13-triene-3,9-diacetic acid], the r1p ([1]; 0.49 T, 25 °C) was 3.13(2) mM^−1s^−1, the r2p ([1]; 0.49 T, 25 °C) was 5.15(3) mM^−1s^−1 and the r1p ([1]; 0.49 T, 37 °C) was 2.54(1) mM^−1s^−1. For the same molecule, the r2p ([1]; 0.49 T, 37 °C) was 4.17(4) mM^−1s^−1, the r1p ([1]; 1.41 T, 25 °C) was 2.72(2) mM^−1s^−1 and the r2p ([1]; 1.41 T, 25 °C) was 9.90(5) mM^−1s^−1. The r1p ([1]; 1.41 T, 37 °C) was 2.06(1) mM^−1s^−1 and the r2p ([1]; 1.41 T, 37 °C) was 7.37(3) mM^−1s^−1.

For `O=C([O-])CN1CCOCCN(CC(=O)[O-])Cc2cccc(n2)C1.[Mn+2]` [[Mn(3,9-OPC2A)]], the “r1p in pure aqueous solution” value ([1]; 1.41 T, 25 °C) was 2.70 mM⁻¹ s⁻¹, the “r1p near pH = 1.8” value ([1]; 1.41 T, 25 °C, complex protonated and dissociated at low pH) was 6.51 mM^−1s^−1 and the “t1/2 (h) at pH = 7.4” value ([2]; extrapolated to pH = 7.4 from Cu(II) exchange rate constants, calculated with the use of k0 value, cZn(II) = 1 × 10^−5 M) was 21.9 h. For the same molecule, the k1 ([2]; proton assisted dissociation, T = 25 °C, I = 0.15 M NaCl) was 2.81 ± 0.07 M⁻¹ s⁻¹ and 2.81 M⁻¹ s⁻¹, the k0 ([2]; spontaneous dissociation, T = 25 °C, I = 0.15 M NaCl, to be treated as higher limit) was “(8.6 ± 1.1) × 10^−6 s^−1” and the “KML x Cu” value ([2]; stability constant of dinuclear intermediate, T = 25 °C, I = 0.15 M NaCl) was 7 ± 4.
